# Assay results taken from patent US20020004632A1 (priority 2000, published 2002).
# Legend:
# dendritic spines [1] = conditions: low levels; cited from earlier work
# [2] = system: Rat hippocampal CA1 neurons; experiment: Spine morphology of transfected neurons in cultured hippocampal brain slices, 2PLSM imaging and automatic spine analysis algorithm; format: cell-based; conditions: biollistic cotransfection with GFP; compared to the GFP control; at least 5 neurons per group
# Procedure: Cultured hippocampal brain slices were prepared from 7 day old rats. After five days in vitro a small subset of neurons were biollistically transfected (for example, Lo, et al., (1994). Neuronal transfection in brain slices using particle-mediated gene transfer, Neuron 13, 1263-1268, the contents of which are hereby incorporated by reference) with a plasmid carrying the gene for enhanced green fluorescent protein (GFP) (commercially available from Clonetech) At least two days after transfection, slices were transferred to a perfusion chamber for imaging. Labeled neurons were identified and imaged using a custom-made 2PLSM laser scanning microscope (as described in Mainen, Z. F., Maletic-Savatic, M., Shi, S. H., Hayashi, Y., Malinow, R., and Svoboda, K. (1999), Two-photon imaging in living brain slices, Methods 18, 231-239, the contents of which are hereby incorporated by reference). The light source was a Ti:sapphire laser running at a wavelength of ≈990 nm (repetition frequency 80 MHz; pulse length 150 fs). The average power delivered to the backfocal plane of the objective (40x, NA 0.8) varied depending on the imaging depth (range 30 to 150 mW). Fluorescence was detected in whole-field detection mode with a photomultiplier tube.
# mTOR kinase controls the phosphorylation of the translation regulators p70^56k and 4E-BP1. […]
# dendritic spines [3] = conditions: low levels; cited from earlier work; remark: listed apart in the source
compound,measurement,setting,value
N[C@@H](CCC(=O)O)C(=O)O [glutamate],actin-based spine motility,dendritic spines [1],abolished
mTOR wt: wild-type mTOR kinase expressed from a plasmid transfected by biollistic gene transfer,spine density,[2],increased
"Cc1onc(O)c1CC(N)C(=O)O (stereo not drawn) [AMPA, alpha-amino-3-hydroxy-5-methyl-4-isoxalone]",actin-based spine motility,dendritic spines [1],abolished
same,lesion-induced spine degeneration,dendritic spines [3],block
